Test results reported in US20250282768A1 (Janssen Pharmaceutica NV, priority 2022, published 2025).

test system: p-IKKa levels in L363 (NIK translocated multiple myeloma) cells; assay: Assay 2: Effect of compounds on p-IKKa levels in L363 (NIK translocated multiple myeloma) cells; type: cell-based; conditions: Homo sapiens, L-363, 6 h, read-out: Assay 2 IC50 (nM), p-IKKa (Ser 176/180) in BAFF stimulated L363 cells with MG132, 6 h; average if tested more than once
Outline: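 L363 cells incubated overnight ± 250 ng/ml BAFF, then 6 h at 37 °C with compound (0.3% DMSO) ± 10 μM MG132. Lysates assayed for p-IKKa (Ser176/180) by AlphaLISA SureFire. IC50 from sigmoidal fit of % inhibition normalized to BAFF/MG132-stimulated and unstimulated controls.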

Q: `CN1CC[C@@](O)(c2cc(-c3cccc(-c4ccnc(Nc5cnc(CO)cn5)n4)n3)no2)C1=O` [Example 303, (R)-3-Hydroxy-3-(3-(6-(2-((5-(hydroxymethyl)pyrazin-2-yl)amino)pyrimidin-4-yl)pyridin-2-yl)isoxazol-5-yl)-1-methylpyrrolidin-2-one] was tested. Which IC50 did it give?
A: 50 to 500 nM

Q: How did the IC50 turn out when `CN1CC[C@@](O)(c2cc(-c3cccc(-c4ccnc(Nc5nnc(C6CC6)o5)n4)n3)no2)C1=O` [Example 304, (R)-3-(3-(6-(2-((5-Cyclopropyl-1,3,4-oxadiazol-2-yl)amino)pyrimidin-4-yl)pyridin-2-yl)isoxazol-5-yl)-3-hydroxy-1-methylpyrrolidin-2-one] was run?
A: 50 to 500 nM

Q: With `CN1CC[C@@](O)(c2cc(-c3cccc(-c4ccnc(Nc5ncn(CC(F)(F)F)n5)n4)n3)no2)C1=O` [Example 305, (R)-3-Hydroxy-1-methyl-3-(3-(6-(2-((1-(2,2,2-trifluoroethyl)-1H-1,2,4-triazol-3-yl)amino)pyrimidin-4-yl)pyridin-2-yl)isoxazol-5-yl)pyrrolidin-2-one] as the molecule, how does the IC50 read?
A: 50 to 500 nM

Q: With `CN(C)CCn1nccc1Nc1nccc(-c2cccc(-c3cc([C@]4(O)CCN(C)C4=O)on3)n2)n1` [Example 306, (R)-3-(3-(6-(2-((1-(2-(Dimethylamino)ethyl)-1H-pyrazol-5-yl)amino)pyrimidin-4-yl)pyridin-2-yl)isoxazol-5-yl)-3-hydroxy-1-methylpyrrolidin-2-one] as the molecule, how does the IC50 read?
A: > 500 nM

Q: Which IC50 does the source give for `CN1CC[C@@](O)(c2cc(-c3cccc(-c4ccnc(Nc5ccc(-c6nncn6C)cn5)n4)n3)no2)C1=O` [Example 308, (R)-3-Hydroxy-1-methyl-3-(3-(6-(2-((5-(4-methyl-4H-1,2,4-triazol-3-yl)pyridin-2-yl)amino)pyrimidin-4-yl)pyridin-2-yl)isoxazol-5-yl)pyrrolidin-2-one] here?
A: 50 to 500 nM

Q: How did the IC50 turn out when `Cc1nc(-c2ccc(Nc3nccc(-c4cccc(-c5cc([C@]6(O)CCN(C)C6=O)on5)n4)n3)nc2)n(C)n1` [Example 309, (R)-3-(3-(6-(2-((5-(1,3-Dimethyl-1H-1,2,4-triazol-5-yl)pyridin-2-yl)amino)pyrimidin-4-yl)pyridin-2-yl)isoxazol-5-yl)-3-hydroxy-1-methylpyrrolidin-2-one] was run?
A: > 500 nM

Q: With `CN1CC[C@@](O)(c2cc(-c3cccc(-c4ccnc(Nc5ncnc6c5COCC6)n4)n3)no2)C1=O` [Example 310, (R)-3-(3-(6-(2-((7,8-Dihydro-5H-pyrano[4,3-d]pyrimidin-4-yl)amino)pyrimidin-4-yl)pyridin-2-yl)isoxazol-5-yl)-3-hydroxy-1-methylpyrrolidin-2-one] as the molecule, how does the IC50 read?
A: > 500 nM

Q: `COCn1ncc(Nc2nccc(-c3cccc(-c4cc([C@]5(O)CCN(C)C5=O)on4)n3)n2)n1` [Example 311, (R)-3-Hydroxy-3-(3-(6-(2-((2-(methoxymethyl)-2H-1,2,3-triazol-4-yl)amino)pyrimidin-4-yl)pyridin-2-yl)isoxazol-5-yl)-1-methylpyrrolidin-2-one] was tested. Which IC50 did it give?
A: < 50 nM

Q: Which IC50 does the source give for `CN1CC[C@@](O)(c2cc(-c3cccc(-c4ccnc(Nc5ccn(C6COC6)n5)n4)n3)no2)C1=O` [Example 312, (R)-3-Hydroxy-1-methyl-3-(3-(6-(2-((1-(oxetan-3-yl)-1H-pyrazol-3-yl)amino)pyrimidin-4-yl)pyridin-2-yl)isoxazol-5-yl)pyrrolidin-2-one] here?
A: < 50 nM

Q: With `CN1CC[C@@](O)(c2cc(-c3cccc(-c4ccnc(Nc5cnc6n5CCOC6)n4)n3)no2)C1=O` [Example 313, (R)-3-(3-(6-(2-((5,6-Dihydro-8H-imidazo[2,1-c][1,4]oxazin-3-yl)amino)pyrimidin-4-yl)pyridin-2-yl)isoxazol-5-yl)-3-hydroxy-1-methylpyrrolidin-2-one] as the molecule, how does the IC50 read?
A: > 500 nM

Q: Which IC50 does the source give for `CN1CC[C@@](O)(c2cc(-c3cccc(-c4ccnc(Nc5cnc6n5CCOCC6)n4)n3)no2)C1=O` [Example 314, (R)-3-Hydroxy-1-methyl-3-(3-(6-(2-((5,6,8,9-tetrahydroimidazo[1,2-d][1,4]oxazepin-3-yl)amino)pyrimidin-4-yl)pyridin-2-yl)isoxazol-5-yl)pyrrolidin-2-one] here?
A: > 500 nM

Q: With `CN1CC[C@@](O)(c2cc(-c3cccc(-c4ccnc(Nc5ncn6ccnc6n5)n4)n3)no2)C1=O` [Example 315, (R)-3-Hydroxy-3-(3-(6-(2-(imidazo[1,2-a][1,3,5]triazin-2-ylamino)pyrimidin-4-yl)pyridin-2-yl)isoxazol-5-yl)-1-methylpyrrolidin-2-one] as the molecule, how does the IC50 read?
A: > 500 nM

Q: How did the IC50 turn out when `CN1CC[C@@](O)(c2cc(-c3cccc(-c4ccnc(Nc5ncc(CO)cn5)n4)n3)no2)C1=O` [Example 316, (R)-3-Hydroxy-3-(3-(6-(2-((5-(hydroxymethyl)pyrimidin-2-yl)amino)pyrimidin-4-yl)pyridin-2-yl)isoxazol-5-yl)-1-methylpyrrolidin-2-one] was run?
A: > 500 nM

Q: `COc1cccnc1Nc1nccc(-c2cccc(-c3cc([C@]4(O)CCN(C)C4=O)on3)n2)n1` [Example 317, (R)-3-Hydroxy-3-(3-(6-(2-((3-methoxypyridin-2-yl)amino)pyrimidin-4-yl)pyridin-2-yl)isoxazol-5-yl)-1-methylpyrrolidin-2-one] was tested. Which IC50 did it give?
A: > 500 nM

Q: How did the IC50 turn out when `CN1CC[C@@](O)(c2cc(-c3cccc(-c4ccnc(Nc5ncn(C)n5)n4)n3)no2)C1=O` [Example 318, (R)-3-Hydroxy-1-methyl-3-(3-(6-(2-((1-methyl-1H-1,2,4-triazol-3-yl)amino)pyrimidin-4-yl)pyridin-2-yl)isoxazol-5-yl)pyrrolidin-2-one] was run?
A: > 500 nM

Q: Which IC50 does the source give for `Cc1nnc(Nc2nccc(-c3cccc(-c4cc([C@]5(O)CCN(C)C5=O)on4)n3)n2)o1` [Example 319, (R)-3-Hydroxy-1-methyl-3-(3-(6-(2-((5-methyl-1,3,4-oxadiazol-2-yl)amino)pyrimidin-4-yl)pyridin-2-yl)isoxazol-5-yl)pyrrolidin-2-one] here?
A: > 500 nM

Q: `CN1CC[C@@](O)(c2cc(-c3cccc(-c4ccnc(Nc5ccnc(N6CCOCC6)c5)n4)n3)no2)C1=O` [Example 320] was tested. Which IC50 did it give?
A: < 50 nM

Q: For `CN1CC[C@@](O)(c2cc(-c3cccc(-c4ccnc(Nc5nnnn5C)n4)n3)no2)C1=O` [Example 321, (R)-3-Hydroxy-1-methyl-3-(3-(6-(2-((1-methyl-1H-tetrazol-5-yl)amino)pyrimidin-4-yl)pyridin-2-yl)isoxazol-5-yl)pyrrolidin-2-one], which IC50 is on record?
A: > 500 nM

Q: `COc1cccc(Nc2nccc(-c3cccc(-c4cc([C@]5(O)CCN(C)C5=O)on4)n3)n2)n1` [Example 322, (R)-3-Hydroxy-3-(3-(6-(2-((6-methoxypyridin-2-yl)amino)pyrimidin-4-yl)pyridin-2-yl)isoxazol-5-yl)-1-methylpyrrolidin-2-one] was tested. Which IC50 did it give?
A: 50 to 500 nM

Q: For `CN1CC[C@@](O)(c2cc(-c3cccc(-c4ccnc(Nc5cn(C)cn5)n4)n3)no2)C1=O` [Example 323, (R)-3-Hydroxy-1-methyl-3-(3-(6-(2-((1-methyl-1H-imidazol-4-yl)amino)pyrimidin-4-yl)pyridin-2-yl)isoxazol-5-yl)pyrrolidin-2-one], which IC50 is on record?
A: 50 to 500 nM

Q: How did the IC50 turn out when `CN1CC[C@@](O)(c2cc(-c3cccc(-c4ccnc(Nc5nnc(C(F)F)o5)n4)n3)no2)C1=O` [Example 324, (R)-3-(3-(6-(2-((5-(Difluoromethyl)-1,3,4-oxadiazol-2-yl)amino)pyrimidin-4-yl)pyridin-2-yl)isoxazol-5-yl)-3-hydroxy-1-methylpyrrolidin-2-one] was run?
A: > 500 nM

Q: How did the IC50 turn out when `CN1CC[C@@](O)(c2cn(-c3cccc(-c4ccnc(Nc5cn(C)nc5F)n4)n3)nn2)C1=O` [Example 325, (R)-3-(1-(6-(2-((3-Fluoro-1-methyl-1H-pyrazol-4-yl)amino)pyrimidin-4-yl)pyridin-2-yl)-1H-1,2,3-triazol-4-yl)-3-hydroxy-1-methylpyrrolidin-2-one] was run?
A: 50 to 500 nM

Q: For `Cc1nccc(Nc2nccc(-c3cccc(-n4cc([C@]5(O)CCN(C)C5=O)nn4)n3)n2)c1F` [Example 326, (R)-3-(1-(6-(2-((3-Fluoro-2-methylpyridin-4-yl)amino)pyrimidin-4-yl)pyridin-2-yl)-1H-1,2,3-triazol-4-yl)-3-hydroxy-1-methylpyrrolidin-2-one], which IC50 is on record?
A: < 50 nM

Q: How did the IC50 turn out when `CN1CC[C@@](O)(c2cn(-c3cccc(-c4ccnc(Nc5cnn(C)c5Cl)n4)n3)nn2)C1=O` [Example 327, (R)-3-(1-(6-(2-((5-Chloro-1-methyl-1H-pyrazol-4-yl)amino)pyrimidin-4-yl)pyridin-2-yl)-1H-1,2,3-triazol-4-yl)-3-hydroxy-1-methylpyrrolidin-2-one] was run?
A: < 50 nM

Q: Which IC50 does the source give for `CN1CC[C@@](O)(c2cc(-c3cccc(-c4ccnc(Nc5cnn(C)c5F)n4)n3)no2)C1=O` [Example 329, (R)-3-(3-(6-(2-((5-Fluoro-1-methyl-1H-pyrazol-4-yl)amino)pyrimidin-4-yl)pyridin-2-yl)isoxazol-5-yl)-3-hydroxy-1-methylpyrrolidin-2-one] here?
A: < 50 nM

Q: Which IC50 does the source give for `CN1CC[C@@](O)(c2cc(-c3cccc(-c4ccnc(Nc5ccncc5F)n4)n3)no2)C1=O` [Example 330, (R)-3-(3-(6-(2-((3-Fluoropyridin-4-yl)amino)pyrimidin-4-yl)pyridin-2-yl)isoxazol-5-yl)-3-hydroxy-1-methylpyrrolidin-2-one] here?
A: < 50 nM

Q: How did the IC50 turn out when `CN1CC[C@@](O)(c2cc(-c3cccc(-c4ccnc(Nc5ncccc5F)n4)n3)no2)C1=O` [Example 331, (R)-3-(3-(6-(2-((3-Fluoropyridin-2-yl)amino)pyrimidin-4-yl)pyridin-2-yl)isoxazol-5-yl)-3-hydroxy-1-methylpyrrolidin-2-one] was run?
A: > 500 nM

Q: With `Cc1ccc(Nc2nccc(-c3cccc(-c4cc([C@]5(O)CCN(C)C5=O)on4)n3)n2)cn1` [Example 332, (R)-3-Hydroxy-1-methyl-3-(3-(6-(2-((6-methylpyridin-3-yl)amino)pyrimidin-4-yl)pyridin-2-yl)isoxazol-5-yl)pyrrolidin-2-one] as the molecule, how does the IC50 read?
A: 50 to 500 nM

Q: With `Cc1ccncc1Nc1nccc(-c2cccc(-c3cc([C@]4(O)CCN(C)C4=O)on3)n2)n1` [Example 333, (R)-3-Hydroxy-1-methyl-3-(3-(6-(2-((4-methylpyridin-3-yl)amino)pyrimidin-4-yl)pyridin-2-yl)isoxazol-5-yl)pyrrolidin-2-one] as the molecule, how does the IC50 read?
A: 50 to 500 nM
